Results from patent publication US6806264B2, “Arylphenyl-substituted cyclic ketoenols” (Bayer Aktiengesellschaft, priority 1998, dated 2004).

Assays:
[1] = tested on: caterpillars of the army worm (Spodoptera frugiperda); assay: Spodoptera frugiperda test; format: in vivo; details: concentration of active compound 0.1 %, cabbage leaves (Brassica oleracea) dipped
[2] = tested on: peach aphids (Myzus persicae); assay: Myzus test; format: in vivo; details: concentration of active compound 0.1 %, infested cabbage leaves (Brassica oleracea) dipped
[3] = tested on: larvae of the mustard beetle (Phaedon cochileariae); assay: Phaedon larvae test; details: concentration of active compound 0.1 %, cabbage leaves (Brassica oleracea) dipped
[4] = tested on: greenhouse red spidermite (Tetranychus urticae); assay: Tetranychus test (OP-resistant/dip treatment); format: in vivo; details: concentration of active compound 0.1 %, infested bean plants (Phaseolus vulgaris) dipped, OP-resistant
Protocol: After the desired period of time, the effect in % is determined.

Cc1ccc(-c2ccc(Cl)cc2)c(C)c1C1=C(O)C2(CCC(C)CC2)NC1=O (stereo not drawn) [Ex. I-1-a-3]
Degree of kill in % after 7 days [1]: 100%
Degree of kill in % after 6 days [2]: 98%
melting point: > 240 °C
Degree of kill in % after 7 days [3]: 100%
Degree of kill in % after 7 days [4]: 100%

COc1cc(Cl)c(C2=C(O)C3(CCC(OC)CC3)NC2=O)cc1-c1ccccc1 (stereo not drawn) [Ex. I-1-a-13]
melting point: 134 °C
Degree of kill in % after 7 days [3]: 100%

Cc1ccc(-c2ccc(Cl)cc2)c(C)c1C1=C(O)C2(CCCOC2)NC1=O (stereo not drawn) [Ex. I-1-a-7]
Degree of kill in % after 7 days [1]: 100%
Degree of kill in % after 6 days [2]: 98%
melting point: > 250 °C
Degree of kill in % after 7 days [3]: 100%

COC1CCC2(CC1)NC(=O)C(c1c(C)cc(C)c(-c3ccccc3)c1C)=C2O (stereo not drawn) [Ex. I-1-a-6]
Degree of kill in % after 7 days [1]: 100%
Degree of kill in % after 6 days [2]: 100%
melting point: > 240 °C
Degree of kill in % after 7 days [3]: 100%

Cc1ccc(-c2ccccc2)c(C)c1C1=C(O)C2(CCC(C)CC2)NC1=O (stereo not drawn) [Ex. I-1-a-2]
Degree of kill in % after 6 days [2]: 95%
melting point: > 240 °C
Degree of kill in % after 7 days [3]: 100%

COC1CCC2(CC1)NC(=O)C(c1c(C)cc(C)c(-c3ccc(Cl)cc3)c1C)=C2O (stereo not drawn) [Ex. I-1-a-5]
Degree of kill in % after 7 days [1]: 100%
melting point: > 240 °C
Degree of kill in % after 7 days [3]: 100%
